Data reported in US9682060B2, “Small molecules that induce intrinsic pathway apoptosis” (The Board of Trustees of the University of Illinois, priority 2015, dated 2017).
Entries after “also recorded” stand apart in the source; their conditions may differ.

How the values were obtained:
HFF-1 = assay: Raptinal toxicity in various cell lines, 24 hour IC50; format: cell-based; conditions: HFF-1 (Human Foreskin Fibroblast); 24 hour incubation; mean ± SD
U-937 cells [1] = assay: Mitochondrial permeability transition pore (MPTP) calcein-cobalt assay; format: cell-based, Human; conditions: calcein-cobalt quenching
Experimental: Mitochondrial Permeability Transition Pore (MPTP) Calcein-Cobalt Assay.
U-937 cells (1×10^6 cells/mL in HBSS) were loaded with calcein-AM (20 nM final concentration) for 45 minutes at 37° C. The cells were washed with HBSS and resuspended in RPMI and plated into a 24-well plate (1×10^6 cells in 1 mL). The cells were treated with Raptinal (10 μM) for 15, 30, 45, 60 and 90 minutes. Cobalt(II) chloride was added (10 μL of 80 mM stock in HBSS) to the cells 10 minutes prior to the end of the time points. The cells were pelleted and resuspended in HBSS (0.5 mL) and calcein fluorescence was measured by flow cytometry. As a positive control for MPTP, ionomycin and calcium were added to calcein-labeled cells in HBSS 10 minutes prior to analysis by flow cytometry.

zebrafish embryos = assay: Apoptosis in zebrafish (secretory annexin V-YFP); format: in vivo; conditions: transgenic embryos 24 hours post fertilization; 10 μM for 1.5 hours
Experimental: Zebrafish experiments were performed as described (van Ham et al., 2010). TuAB zebrafish embryos were used for all experiments and were incubated at 28° C. in HEPES-buffered E3 zebrafish medium (pH 7.2) in the dark. Chemical treatments (10 μM Raptinal or vehicle, 1% v/v final DMSO) were performed in multi-well plates in buffered E3 medium. Images were taken using an AxioCam MRc camera and AxioVision 4.8 software (Zeiss). To quantify apoptosis, the number of secA5-YFP+ apoptotic cells was counted manually in embryos using a fluorescence dissection stereomicroscope (Discovery V8; Zeiss, Germany).

[2] = format: in vivo, C57BL/6 mice; conditions: mice; single-dose intravenous 15-60 mg/kg
Experimental: Pharmacokinetics and Toxicity Profiling in Mice.
All animal studies were performed with prior approval by the University of Illinois at Urbana-Champaign IACUC committee. Eight week old female C57BL/6 mice were used for all pharmacokinetic and toxicity experiments. […]. For toxicity assessment, Raptinal was administered intravenously as a single-dose injection across a dose range of 15-60 mg/kg, and mice were sacrificed 7 days post-injection for evidence of hematologic toxicity (n=3 mice/group).

HL-60 cells = assay: High-throughput cell death screen (MTS); format: cell-based, human; conditions: 1 μM, 24 hours
Experimental: High-Throughput Cell Death Screen.
HL-60 cells were plated into 384 well plates (50 μL of 2×10^6 cells/mL per well) in RPMI cell culture media. Library compounds were transferred using a 384-pin transfer apparatus (V & P Scientific, San Diego) which transferred 0.1 μL from 10 mM DMSO stock solutions to achieve a final concentration of 20 μM. Controls containing DMSO only and 10 μM etoposide were used to serve as live and dead controls respectively. The cells were incubated for 24 hours.

[3] = system: caspase-3/-7 activity in MIA PaCa-2 cells; assay: Whole cell caspase activity assay (Ac-DEVD-AFC); format: cell-based, Human; conditions: transfected MIA PaCa-2 cells; 10 μM for 1 hour
Experimental: Whole Cell Caspase Activity Assay.
The caspase activity assay was conducted in 96-well plates using transfected cells (see Example 3 for transfection protocol). Transfected cells were treated with 10 μM Raptinal for 1 hour, which corresponded to 40% of maximal caspase-3/-7 activity achievable by Raptinal. After treatment, the media was replaced with PBS (150 μL) and 50 μL of freshly made 4× caspase assay buffer (containing 20 μM Ac-DEVD-AFC) (Stennicke and Salvesen, 1997). After one hour incubation at room temperature (^˜22° C.) in the dark, the fluorescence of cleaved AFC was read on a spectrofluorometer (Ex: 380 nm, Em: 500 nm). The results were expressed as the relative caspase-3/-7 activity and normalized by designating the vehicle (0.5% DMSO) as 0% activity and Raptinal treatment as 100% activity.

U-937 cells [4] = format: cell-based, Human; conditions: 20 minute treatment, dihydroethidium, flow cytometry
Experimental: Measurement of Cellular ROS Production.
U-937 cells (1 mL of 5×10^5 cells/mL) in Hank's buffered salt solution (HBSS) containing 5 mM glucose were treated with DMSO, 2 or 10 μM Raptinal, 10 μM thapsigargin, 100 μM etoposide (1% DMSO final) and incubated in the presence of 5 μM dihydroethidium a 37° C., 5% CO2 incubator for 20 minutes. […]. The levels of ethidium were assessed by flow cytometry. Live cells were analyzed based on gating on the forward and side scatter properties and the geometric mean of ethidium staining was determined using the software FCS Express.

U-937 cells [5] = assay: Cell morphology by light, scanning electron and transmission electron microscopy; format: cell-based, Human; conditions: 10 μM
Experimental: Cell Morphology by Light Microscopy.
Phase contrast images of U-937 cells treated with 10 μM Raptinal were taken with an Olympus DP-21 microscope digital camera. The cells were kept warm between images by returning the plate to the 37° C. incubator.
Scanning Electron Microscopy.
U-937 cells (4×10^6 cells in 8 mL 0.45 micron-filtered cell culture media) were treated with 1% DMSO) or 10 μM Raptinal in 10 cm culture dishes for 60 minutes. The cells were centrifuged (250×g, 5 min) and the media aspirated. Ice-cold Karnovsky's fixative (1 mL of 0.45 micron filtered) was added to the cell pellet which was resuspended by gently agitation. The cells were fixed overnight at 4° C. and submitted for scanning electron microscopy (SEM) sample processing. The cells were stained with OsO4, placed on filter paper and dehydrated. After mounting, the cells were coated with Pd/Au and scanning electron microscopy was performed.
Transmission Electron Microscopy.
U-937 cells (4 mL of 5×10^5 cells/ml) were treated with DMSO or 10 μM of Raptinal for 5, 30, and 60 minutes. The cells were centrifuged 400×g for 5 min and the media aspirated. The cells were fixed by the addition of Karnovsky's fixing solution (0.5 mL) and placed in a 4° C. fridge overnight. The next day, the cells were microwave fixed, stained with 2% OsO4, washed with 3% KCN and enbloc stained with uranyl acetate. The samples were dehydrated with acetonitrile and ethanol, suspended in pure epoxy, and embedded overnight at 85° C. The embedded samples were cut into thick and then thin sections and these were mounted and viewed.

in vitro = conditions: human, U-937 cells

O=CC1(C2(C=O)c3ccccc3-c3ccccc32)c2ccccc2-c2ccccc21 [Raptinal, [9,9′]bifluorenyl-9,9′-dicarbaldehyde]
IC50 (HFF-1): 3.3 ± 0.2 µM
mitochondrial permeability transition pore (MPTP) formation (U-937 cells [1]): does not induce; also recorded: did not undergo mitochondrial-permeability-transition-pore (MPTP) formation
apoptotic cells (zebrafish embryos): 80 cells per fish
tolerability [2]: well tolerated
cell death in retest of screen hits (HL-60 cells): quantitative cell death
caspase-3/-7 activity as share of maximal activity achievable by Raptinal [3]: 40%
production of reactive oxygen species (superoxide anion radicals) (U-937 cells [4]): rapid accumulation of superoxide anion radicals; also recorded: observed
mitochondrial morphology (transmission electron microscopy) (U-937 cells [5]; after 5 minutes): substantial mitochondrial swelling
blebbing (U-937 cells [5]; at 30 min): modest
blebbing (U-937 cells [5]; at 60 min): extensive
cytotoxicity at 2 h, 10 µM (in vitro): ~80%
